This note sets out measurements from patent US20250000855A1, “USE OF APOMORPHINE AS THERAPEUTIC AGENT FOR NECROPTOSIS-RELATED DISEASES” (INDUSTRY-ACADEMIC COOPERATION FOUNDATION, YONSEI UNIVERSITY, priority 2021, published 2025).

One data set has as its target T1, MLKL protein (Homo sapiens, UniProt Q8NB16).
T1 construct: purchased Abcam ab241453
T1 sequence (Q8NB16 1-471): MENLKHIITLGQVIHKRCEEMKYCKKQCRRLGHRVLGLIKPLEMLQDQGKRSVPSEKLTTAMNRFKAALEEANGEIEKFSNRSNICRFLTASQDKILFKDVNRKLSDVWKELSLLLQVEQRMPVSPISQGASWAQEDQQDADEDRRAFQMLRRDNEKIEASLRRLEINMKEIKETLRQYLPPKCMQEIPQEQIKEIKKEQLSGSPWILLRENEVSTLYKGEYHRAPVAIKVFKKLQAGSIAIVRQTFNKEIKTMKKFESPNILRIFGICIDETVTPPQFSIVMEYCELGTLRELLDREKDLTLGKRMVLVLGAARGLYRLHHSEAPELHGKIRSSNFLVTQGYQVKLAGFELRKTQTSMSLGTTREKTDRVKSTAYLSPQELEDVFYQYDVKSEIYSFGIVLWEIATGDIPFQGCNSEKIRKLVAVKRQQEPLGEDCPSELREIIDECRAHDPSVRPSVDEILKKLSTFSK
The data set is described as follows: Surface plasmon resonance (SPR) analysis, binding to MLKL protein. The following applies: MLKL immobilized on CM5 chip, Biacore T200, 25° C., 10 mM HEPES pH 7.4. On the procedure:
(§1) The interaction between MLKL and apomorphine (=APO) was detected through surface plasmon resonance (SPR) analysis using Biacore T200 (GE Healthcare). For pH scouting, a buffer consisting of 10 mM sodium acetate (pH 4.0 to 6.0) was used. MLKL protein (Abcam, ab241453), and MLKL N-term (amino acids 1-154) protein that had been purified in a laboratory were immobilized on the surface of a sensor chip CM5 (GE Healthcare) under scouted buffer conditions. To deduce an Rligand value, a coupling process was performed based on the molecular weights of MLKL, MLKL N-term domain (MW ligand), and APO (MW analyte). Oxidized (24 hr, RT incubation) and reduced (+DTT(DL-dithiothreitol)) forms of APO were injected into a running buffer (flow rate: 10 μl/min) consisting of 10 mM HEPES (pH 7.4) at 25° C. A sensorgram was recorded and analyzed in real time using control software provided by the Biacore T200 system itself. Six or more concentrations of APO were used in combination, and each KD value was derived. All run data was calculated using BIAevaluation Software (GE Healthcare).
(§2) SPR analysis was used to analyze the interaction pattern between APO and the MLKL protein (Experimental Method 1-10). […] Here, the analysis was performed by binding MLKL and the MLKL N-term domain protein immobilized on a CM5 chip with APO having six concentrations.
On the technique in general: In SPR one partner is held on a chip, and binding of the other changes the refractive index at the surface.

The target of data set [1] is T2, MLKL N-term domain (amino acids 1-154) (Homo sapiens, UniProt Q8NB16).
T2 construct: MLKL N-term (amino acids 1-154) protein that had been purified in a laboratory; made in house
T2 sequence (Q8NB16 1-154): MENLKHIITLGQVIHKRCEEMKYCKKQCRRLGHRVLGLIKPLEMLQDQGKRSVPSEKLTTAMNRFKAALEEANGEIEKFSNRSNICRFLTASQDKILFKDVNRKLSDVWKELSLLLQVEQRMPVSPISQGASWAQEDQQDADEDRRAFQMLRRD
The data set is described as follows: Surface plasmon resonance (SPR) analysis, binding to MLKL N-term domain. The following applies: MLKL N-term domain immobilized on CM5 chip, Biacore T200, 25° C., 10 mM HEPES pH 7.4. The procedure: as §1, §2

Another data set relates to DSS-induced colitis. The data set is described as follows: DSS-induced colitis mouse model. The data set is classed as in vivo, C57BL/6 mice. The procedure: An animal experiment was performed on 6 to 8-week-old male C57BL/6 mice in accordance with the procedures approved by the Animal Care and Use Committee of the Yonsei Laboratory Animal Research Center (YLARC, 2018-0024) at Yonsei University. The mice were housed in polypropylene cages with a maximum of four mice per cage under constant temperature and humidity, and the light/dark cycle was 12 hours/12 hours. All mice were given an acclimation period of at least 7 days before participation.
For colitis induced by dextran sulfate sodium (DSS, 36-50 kDa, MP Biomedicals), the mice were administered 2.5% DSS in drinking water for 7 days. The mice were randomly divided into 8 groups as follows. • 1) Control • 2) Apomorphine-treated group (=APO; STK088477, Vitas-M, 1.5 mg/kg, daily intraperitoneal injection) • 3) APO-treated group (15 mg/kg, daily intraperitoneal injection) 4) DSS-treated group • 5) DSS and necrostatine-1-treated group (NEC-1; Biovision, 1864-5, 1.5 mg/kg, daily intraperitoneal injection) • 6) DSS and APO-treated group (0.15 mg/kg, daily intraperitoneal injection) • 7) DSS and APO-treated group (1.5 mg/kg, daily intraperitoneal injection) • 8) DSS and APO-treated group (15 mg/kg, daily intraperitoneal injection)
The body weights and disease activity index (DAI) scores of the mice were recorded daily. DAI was calculated by adding scores of body weight loss (0 point=none, 1 point=1%-5% weight loss, 2 points=5%-10% weight loss, 3 points=10%-15% weight loss, 4 points=15% or more weight loss), stool consistency/diarrhea (0 point=normal, 2 points=loose stools, 4 points=watery diarrhea), and bleeding (0 point=no bleeding, 2 points=slight bleeding, 4 points=total bleeding). At the end of the experiment, the mice were sacrificed, the colon was removed, and then changes in colon length were confirmed, and a weight loss was measured.
At the end of the experiment, the mice were sacrificed, and the colon was removed (without the cecum). The removed colon was washed with cold phosphate-buffered saline (PBS; Welgene, LB001-02) before the measurement of its length. The measured colon was prepared for further analysis by cutting intestinal segments along the mesenteric line and washing with PBS. Then, the intestinal segments were placed in a petri dish and fixed with modified Bouin's fixative (50% ethanol/5% acetic acid in dH2O). The lumen side was maintained upward by holding the proximal end with forceps in one hand and a toothpick in the other. Then, the flat open end of the colon was pulled with the forceps and the proximal end was wrapped around the toothpick. The entire large intestine was wrapped, placed in a cassette, and immersed in 4% paraformaldehyde (Biosesang, PC2031-100-00) at 4° C. overnight.
After the experiment, colon tissues collected from the sacrificed mice were fixed in 4% paraformaldehyde overnight. Swiss-rolled and fixed colon specimens were embedded in paraffin. The specimens were cut into 5-μm sections, and then the sections were stained with hematoxylin and eosin (H & E). The histological evaluation of colitis lesions along the entire length was performed with reference to a scoring system of the degree of crypt structure damage (0˜3), the degree of inflammatory cell infiltration (0˜3), and submucosal edema (0˜3).
5-μm cut paraffin sections were blocked with 5% BSA-supplemented TBS-T, and then the sections and primary antibodies were co-incubated at 4° C. overnight. Secondary antibodies were added and incubated for 1 hour. […]

For `CN1CCc2cccc3c2[C@H]1Cc1ccc(O)c(O)c1-3` [APO, apomorphine], the Kd (as a rule, the free concentration of one partner at which half of the binding sites on the other are occupied at equilibrium, for simple one-to-one binding) on MLKL protein stood at 12.7 nM; in data set [1], 62.5 nM. Also, in the data set on DSS-induced colitis (DSS mice, APO 0.15, 1.5, and 15 mg/kg daily intraperitoneal injection, FIG. 7A), the “characteristic symptoms of colitis observed by H&E staining and PAS staining” value is listed as “alleviated in a concentration-dependent manner”. The HI score result in the data set on DSS-induced colitis (DSS mice, APO daily intraperitoneal injection, FIG. 7A) is “reduce”. The “degree of colon shortening” value with DSS-induced colitis (DSS mice, APO daily intraperitoneal injection, FIG. 7B) is given as “reduce”. Moreover, the DAI score entry with DSS-induced colitis (DSS mice, APO daily intraperitoneal injection, FIG. 7C) is recorded as “reduce”. Also, in the data set with DSS-induced colitis (mice without DSS, APO 1.5 or 15 mg/kg daily intraperitoneal injection), the “differences due to treatment with APO alone (without DSS)” value is “no differences”.
